Assays:
Assay type in all cases: cell-based
BaF3 (EGFR-N771insH) = BaF3 (EGFR-N771insH) (Homo sapiens, UniProt P00533, INS771H, cells depend on it); test: Test 5: BaF3 (EGFR-N771insH) cell proliferation test; settings: 72 hours, Cell Titer-Glo, read-out: Test 5 - IC50
Experimental: Test 5: BaF3 (EGFR-N771insH) Cell Proliferation Test
BaF3 (EGFR-N771insH) was cultured in RPMI1640 medium containing 10% fetal bovine serum and 2 mM glutamine. The cells were grown at 37° C. in a humidified incubator with 5% CO2.
(§1) The number of viable cells in the culture was measured according to the protocol described in Promega's Cell Titer-Glo Luminescent cell Viability Assay (Promega catalog number #G7570). 90 μl of cells (3,000 cells/well) were cultured in growth medium in a Corning black transparent bottom 96-well plate, and cultured in a 5% CO2 humidified incubator at 37° C. overnight. The compound serially diluted in 100% DMSO was added to the cells using a pipette, and the cells were incubated for another 72 hours. 100 μl of the mixed Cell Titer-Glo reagent was added to the cells in the 96-well culture plate to lyse the cells and mix gently. Subsequently, the […] was detected on the Envision microplate detector to obtain the data of each compound. Finally, the data was input into a suitable software package (such as Prism) for curve fitting analysis.

BaF3 (HER2-G776insVC) = BaF3 (HER2-G776insVC) (Homo sapiens, UniProt P04626, cells depend on it, form not given); test: Test 11: BaF3 (HER2-G776insVC) cell proliferation test; settings: 72 hours, Cell Titer-Glo, read-out: Test 11 - IC50
Sequence of BaF3 (HER2-G776insVC) (P04626 with tags, fused parts or gaps DELINS776-776VC): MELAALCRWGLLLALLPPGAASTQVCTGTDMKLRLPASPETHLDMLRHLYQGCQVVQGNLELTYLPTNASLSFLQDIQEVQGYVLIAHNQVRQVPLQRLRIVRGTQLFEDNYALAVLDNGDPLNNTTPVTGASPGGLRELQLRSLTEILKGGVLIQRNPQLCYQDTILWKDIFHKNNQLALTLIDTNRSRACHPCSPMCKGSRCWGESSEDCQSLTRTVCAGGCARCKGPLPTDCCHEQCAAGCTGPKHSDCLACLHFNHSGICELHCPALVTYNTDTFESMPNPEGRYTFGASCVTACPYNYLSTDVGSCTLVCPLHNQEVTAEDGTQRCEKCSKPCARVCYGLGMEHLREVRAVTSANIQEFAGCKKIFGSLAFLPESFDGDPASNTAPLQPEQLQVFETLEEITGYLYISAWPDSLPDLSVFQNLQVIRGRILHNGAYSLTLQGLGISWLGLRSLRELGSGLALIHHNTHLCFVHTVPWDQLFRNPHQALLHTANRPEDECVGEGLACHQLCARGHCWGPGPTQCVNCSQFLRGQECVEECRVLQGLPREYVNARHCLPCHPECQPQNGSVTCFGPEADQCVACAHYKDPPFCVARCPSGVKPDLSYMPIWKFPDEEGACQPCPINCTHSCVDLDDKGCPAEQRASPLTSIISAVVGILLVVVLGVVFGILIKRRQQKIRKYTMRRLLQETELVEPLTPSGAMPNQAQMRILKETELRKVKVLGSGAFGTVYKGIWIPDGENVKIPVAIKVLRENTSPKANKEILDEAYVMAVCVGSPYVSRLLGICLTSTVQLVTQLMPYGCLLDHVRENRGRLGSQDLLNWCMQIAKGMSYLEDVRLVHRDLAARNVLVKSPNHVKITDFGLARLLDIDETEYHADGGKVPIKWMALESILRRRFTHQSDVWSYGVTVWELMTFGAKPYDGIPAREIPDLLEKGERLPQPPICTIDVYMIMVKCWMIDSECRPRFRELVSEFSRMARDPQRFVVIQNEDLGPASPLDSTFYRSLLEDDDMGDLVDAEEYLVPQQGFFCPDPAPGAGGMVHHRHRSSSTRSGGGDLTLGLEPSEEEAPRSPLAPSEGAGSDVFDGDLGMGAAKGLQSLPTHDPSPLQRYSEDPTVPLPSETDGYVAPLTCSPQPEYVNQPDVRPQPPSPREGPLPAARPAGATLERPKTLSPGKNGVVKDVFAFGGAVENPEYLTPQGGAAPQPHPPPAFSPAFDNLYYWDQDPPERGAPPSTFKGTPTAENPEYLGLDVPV
Experimental: Test 11: BaF3 (HER2-G776insVC) Cell Proliferation Test
The engineered cell line BaF3 (HER2-G776insVC) was constructed by the inventor himself (for the method of cell line construction, see Jingrui Jiang et al., Cancer Res. 2005 Oct. 1; 65 (19): 8964-74; Jacqulyne P. Robichaux et al., Nat Med. 2018 May; 24 (5): 638-646). BaF3 (HER2-G776insVC) was cultured in RPMI1640 medium containing 10% fetal bovine serum and 2 mM glutamine. The cells were grown at 37° C. in a humidified incubator with 5% CO2.
as §1

[1] = tested on: NCI-H1975 (EGFR L858R/T790M double mutant); test: Test 1: EGFR L858R/T790M (EGFR double mutant) cell proliferation test; settings: Homo sapiens; NCI-H1975 cells, 72 hours, Cell Titer-Glo

Sequence of BaF3 (EGFR-N771insH) (P00533 with tags, fused parts or gaps INS771H): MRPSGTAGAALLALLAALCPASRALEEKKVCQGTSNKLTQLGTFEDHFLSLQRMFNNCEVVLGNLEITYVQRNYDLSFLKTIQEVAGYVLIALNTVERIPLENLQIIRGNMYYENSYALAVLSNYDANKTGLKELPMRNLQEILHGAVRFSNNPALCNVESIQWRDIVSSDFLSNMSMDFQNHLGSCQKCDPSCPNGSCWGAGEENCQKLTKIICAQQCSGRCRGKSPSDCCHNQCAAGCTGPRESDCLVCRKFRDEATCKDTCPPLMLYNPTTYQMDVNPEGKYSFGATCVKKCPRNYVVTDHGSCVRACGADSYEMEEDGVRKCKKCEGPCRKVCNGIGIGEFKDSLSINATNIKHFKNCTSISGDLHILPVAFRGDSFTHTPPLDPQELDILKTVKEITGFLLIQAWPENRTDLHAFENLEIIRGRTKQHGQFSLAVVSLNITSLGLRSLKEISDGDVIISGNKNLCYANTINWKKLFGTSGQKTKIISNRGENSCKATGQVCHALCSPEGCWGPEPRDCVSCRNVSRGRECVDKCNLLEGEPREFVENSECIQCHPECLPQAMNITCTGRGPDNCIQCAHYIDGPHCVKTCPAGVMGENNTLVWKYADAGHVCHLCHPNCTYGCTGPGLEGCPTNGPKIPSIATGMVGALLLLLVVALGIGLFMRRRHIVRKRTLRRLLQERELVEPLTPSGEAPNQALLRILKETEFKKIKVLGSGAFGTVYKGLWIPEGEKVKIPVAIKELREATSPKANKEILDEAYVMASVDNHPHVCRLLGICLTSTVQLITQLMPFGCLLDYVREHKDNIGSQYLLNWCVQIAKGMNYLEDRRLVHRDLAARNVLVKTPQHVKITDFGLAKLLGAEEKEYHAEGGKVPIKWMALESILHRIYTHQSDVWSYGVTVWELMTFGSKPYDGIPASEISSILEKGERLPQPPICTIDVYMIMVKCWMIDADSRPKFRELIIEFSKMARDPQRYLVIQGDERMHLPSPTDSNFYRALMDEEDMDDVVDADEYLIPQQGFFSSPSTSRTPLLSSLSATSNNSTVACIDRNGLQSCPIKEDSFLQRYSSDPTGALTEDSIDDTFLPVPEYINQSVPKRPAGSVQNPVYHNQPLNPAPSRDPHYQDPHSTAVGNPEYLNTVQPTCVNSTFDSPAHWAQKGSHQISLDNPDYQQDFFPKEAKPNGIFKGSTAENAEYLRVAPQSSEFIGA

GI50 (BaF3 (EGFR-N771insH))	GI50 (BaF3 (HER2-G776insVC))	IC50 [1]	SMILES
9.19 nM	1.07 nM	13.5 nM	C=CC(=O)Nc1cc(Nc2ncnc(-c3cn(C)c4ccc(F)cc34)n2)c(OC)cc1N(C)CCN(C)C [Example 11]
7.66 nM	1.83 nM	12.7 nM	C=CC(=O)Nc1cc(Nc2ncnc(-c3cn(C)c4ccc(F)cc34)n2)c(OCC(F)(F)F)cc1N(C)CCN(C)C [Example 15, N-(2-((2-(dimethylamino)ethyl)(methyl)amino)-5-((4-(5-fluoro-1-methyl-1H-indol-3-yl)-1,3,5-triazin-2-yl)amino)-4-(2,2,2-trifluoroethoxy)phenyl)acrylamide]
9.21 nM	1.95 nM	16.8 nM	C=CC(=O)Nc1cc(Nc2ncnc(-c3cn(C)c4ccc(F)cc34)n2)c(OC(F)F)cc1N(C)CCN(C)C [Example 14, N-(4-(difluoromethoxy)-2-((2-(dimethylamino)ethyl)(methyl)amino)-5-((4-(5-fluoro-1-methyl-1H-indol-3-yl)-1,3,5-triazin-2-yl)amino)phenyl)acrylamide]

— patent US12258344B2, “Azaaromatic amide derivatives for the treatment of cancer” (SHENZHEN FORWARD PHARMACEUTICALS CO., LTD., priority 2019, dated 2025)
